Laboratory results taken from US10857105B2, “Compounds and compositions for intracellular delivery of therapeutic agents” (ModernaTX, Inc., priority 2017, dated 2020).

What was measured:
[1] = tested on: modified luciferase; assay: Luciferase expression in liver, lung, spleen and femur 6 hours after intravenous administration to mice; assay type: in vivo; details: for Total Flux, Femur / Total Flux, Liver / Total Flux, Lung / Total Flux, Spleen: 6 hours after intravenous 0.5 mpk, mice
Procedure, shortened: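 Nanoparticle formulations of the modified luciferase were given intravenously to mice (n=3) at 0.5 mpk. Bioluminescence was measured after 6 hours as total light flux. Standard MC3 formulation and PBS run as controls.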

[2] = Particle size and polydispersity index of nanoparticle compositions (Zetasizer Nano ZS); assay type: physicochemical
Procedure, shortened: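 Size and PDI measured by Zetasizer Nano ZS in 1×PBS (zeta potential in 15 mM PBS). Lipid nanoparticles contained test ionizable lipid:DSPC:cholesterol:PEG-DMG at 50:10:38.5:1.5 mol % with N1-methyl-pseudouridine mRNA encoding luciferase or hEPO.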

[3] = tested on: IL-6, IP-10; assay: Cytokine induction (IL-6, IP-10) in mice 6 hours after intravenous administration; assay type: in vivo; design: unit not given here; details: intravenous 0.5 mpk
Excerpt: The introduction of foreign material into a mammalian body induces an innate immune response that promotes cytokine production. Such immune responses to, for example, nanoparticle compositions including therapeutic and/or prophylactics, are undesirable. The induction of certain cytokines is thus measured to evaluate the […] of nanoparticle compositions. The concentrations of various cytokines in mice upon intravenous administration of nanoparticle compositions presented in Table 1A at a dosage of 0.5 mpk was measured at 6 hours. The standard MC3 formulation and a PBS control were also tested. As is evident in Table 7, IL-6 induction was highest for compositions including Compounds 1, 3, 9, 19, and 26, while IP-10 induction was highest for compositions including Compounds 3, 4, 7, 20, and 26. IL-6 induction was lowest for compositions including Compounds 4, 11, 12, and 28. IP-10 induction was lowest for compositions including Compounds 10, 11, 12, 13, 15, 17, and 18.

[4] = tested on: luciferase (Luc) mRNA; assay: Luciferase expression (whole body bioluminescence) after intravenous administration to mice; assay type: in vivo; details: intravenous; for Novel lipid/MC3 expression ratio, i.v.: luciferase, 6 hr. time point, relative to MC3 formulation
Procedure, shortened: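 Mice (n=6) received lipid nanoparticle formulations carrying luciferase mRNA intravenously at 0.5 mg/kg. Whole-body bioluminescence was measured at 3, 6 and 24 h. Total flux was taken as area under the curve and expressed relative to a standard MC3 formulation.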

[5] = Encapsulation efficiency of RNA in nanoparticle compositions (RIBOGREEN assay); assay type: physicochemical
Procedure, shortened: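 Lipid nanoparticles (ionisable lipid:DSPC:cholesterol:PEG-DMG 50:10:38.5:1.5 mol %) carrying N1-methylpseudouridine luciferase or hEPO mRNA diluted to about 5 μg/mL in TE, pH 7.5, with or without 2% Triton X-100, 15 min at 37° C. RiboGreen fluorescence (ex ~480, em ~520 nm) blank-subtracted; free RNA = intact/disrupted signal.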

[6] = tested on: luciferase (Luc) mRNA; assay: Luciferase expression after intramuscular administration to mice; assay type: in vivo; details: Luc mRNA, intramuscular, 0.01 mpk, 6 hours
Excerpt: The numbers 1-7 in this figure correspond to MC3, Compounds 168-170, and 173-175 respectively.
FIGS. 18A and 18B show the results of luciferase expression measured upon intramuscular administration of various nanoparticle compositions to CD-1 mice at 0.01 mpk. FIG. 18A is a bar graph showing total flux at 6 hr after administration. The numbers above each bar indicate the expression ratio relative to MC3. […] Numbers 1-11 in the Figures refer to compositions containing the following: 1: MC3, 2: Compound 143, 3: Compound 49; 4: Compound 113; 5: Compound 61; 6: Compound 72; 7: Compound 75; 8: Compound 71; 9: Compound 128; 10: Compound 156; 11: Compound 157.
The numbers 1-9 in this figure correspond to MC3, and Compounds 178, 181, 182, 218, 198, 200, 233, and 239, respectively.
The total flux (measured by area under the curve, AUC) induced by administration of a formulation including a given lipid relative to that induced by administration of a formulation including MC3 was also measured for several lipids.
Sample formulations including modified luciferase (Luc) mRNA prepared and administered intramuscularly and the resulting expression and immunogenicity were evaluated simultaneously. Formulations including compounds according to Formula (I), (IA), (IB), (II), (IIa), (IIb), (IIc), (IId), (IIe), (IIf), (IIg), or (III) were prepared and administered at dose of and 0.01 mpk.

[7] = tested on: hEPO mRNA; assay: hEPO expression after intravenous administration to rats; assay type: in vivo, rat; details: Table 19B; for [hEPO] Lipid/MC3: ratio to MC3
Experimental: The expression of hEPO and cytokine induction in rats intravenously administered a nanoparticle composition at a dose of 2.0 mpk was measured at 6 h.
The expression of hEPO in rats intravenously administered a nanoparticle composition at a dose of 0.2 mpk or 2.0 mpk was measured at 6 hours. Table 16 summarize the ratio of hEPO expression levels using various nanoparticle compositions as compared to the hEPO expression level using MC3 formulation and the lipid levels in the liver measured 48 hours after administration, as described above. Tables 17 and 18 summarize the lipid levels in the liver and spleen measured 48 hours after administration of Compounds 28, 33, 53, and 54. Liver and spleen levels represent the average values calculated for 3 rats in each group. As is shown in Tables 17 and 18, less than 10% of Compounds 28, 33, 53, and 54 remained in the liver after 48 hours, while greater than 60% of MC3 remained.
Table 19A summarizes the hEPO expression, IP-10 induction, liver and spleen levels, and alanine aminotransferase (ALT) and aspartate aminotransferase (AST) measured upon intravenous administration of formulations including Compounds 48, 49, and 50 to rat at 0.2 and 2 mpk and hEPO mRNA. hEPO concentrations were measured 6 hours after administration, while cytokine induction and liver and spleen levels were measured 48 hours after administration. hEPO and IP-10 concentrations are presented in pg/ml, while liver levels are provided in ng/g. ALT and AST levels are presented in international units.
The expression of hEPO induced by intravenous administration to rats of nanoparticle compositions at various doses was measured at 2, 4, 6, 8, 24, and 48 hour time points. FIGS. 3-6 respectively summarize the hEPO expression measured upon intravenous administration of formulations including Compounds 26, 18, 25, and MC3 to rat at various doses. The lipid levels of Compound 26 in the liver after 48 hours were about 19%.
The expression of hEPO and lipid levels in the liver and spleen in rats intravenously administered a nanoparticle composition at a dose of 0.2 mpk was measured at various time points. Compounds 18 and 25 were selected for comparison with MC3. Lipids were formulated according to the standard MC3 formulation described above. Rats were administered intravenously a single 0.2 mpk dose and expression monitored at 0.25, 0.5, 1, 2, 4, 8, 24, and 48 hours after administration.

[8] = Table 1A, lipid:DSPC:cholesterol:PEG-DMG 50:10:38.5:1.5 mol %
[9] = Table 1B, formulated with hEPO mRNA

For `CCCCCCCCCOC(=O)CCCCCCCN(CCCO)CCCCCCCC(=O)OC(CCCCCCCC)CCCCCCCC` [Compound 19, Heptadecan-9-yl 8-((3-hydroxypropyl)(8-(nonyloxy)-8-oxooctyl)amino) octanoate], the “Total Flux, Femur” value [1] was 1.68E+06, the “Total Flux, Liver” value [1] was 6.33E+08 and the “Total Flux, Lung” value [1] was 5.99E+06. For the same compound, the “Total Flux, Spleen” value [1] was 1.77E+07, the Size [2, 8] was 101.1 nm and the Size ([2]; Table 1E, compositions for subcutaneous administration) was 80.7 nm. For the same compound, the “Cytokine induction, IL-6” value [3] was 285.56, the “Cytokine induction, IP-10” value [3] was 1468.94 and the “Novel lipid/MC3 expression ratio, i.v.” value [4] was 0.96.
For `CCCCCCCCCOC(=O)CCCCCCCN(CCCCCCCC(=O)OC(CCCCCCCC)CCCCCCCC)C1CCCCC1O` (stereo not shown) [Compound 22, Heptadecan-9-yl 8-((2-hydroxycyclohexyl)(8-(nonyloxy)-8-oxooctyl)amino)octanoate], the “Total Flux, Femur” value [1] was 1.16E+05, the “Total Flux, Liver” value [1] was 4.00E+07 and the “Total Flux, Lung” value [1] was 4.73E+05. For the same compound, the “Total Flux, Spleen” value [1] was 1.57E+06, the EE [5, 8] was 96.00% and the Size [2, 8] was 80.2 nm. The “Cytokine induction, IL-6” value [3] was 90.54 and the “Cytokine induction, IP-10” value [3] was 976.50.
In the case of `CCCCCCCCCOC(=O)CCCCCCCN(CCCN)CCCCCCCC(=O)OC(CCCCCCCC)CCCCCCCC` [Compound 121, Heptadecan-9-yl 8-((3-aminopropyl)(8-(nonyloxy)-8-oxooctyl)amino)octanoate], the “Total flux 6 hours after intramuscular administration, 0.01 mpk Dose” value [6] is reported as 1.06E+06 p/s.
For `CCCCCCCCCOC(=O)CCCCCCCN(C)CCCCCCCC(=O)OC(CCCCCCCC)CCCCCCCC` [Compound 123, Heptadecan-9-yl 8-(methyl(8-(nonyloxy)-8-oxooctyl)amino)octanoate], the “Total Flux, Liver” value [1] was 2.50E+08, the “Total Flux, Lung” value [1] was 1.78E+06 and the “Total Flux, Spleen” value [1] was 4.04E+06. The “Total flux 6 hours after intramuscular administration, 0.01 mpk Dose” value [6] was 1.08E+07 p/s.
For `CCCCCCCCCCCCN(CCO)CCCCCCCCCCCC(=O)OC` [Compound 137, Methyl 12-(dodecyl(2-hydroxyethyl)amino)dodecanoate], the “Total Flux, Femur” value [1] was 2.02E+04, the “Total Flux, Liver” value [1] was 6.48E+04 and the “Total Flux, Lung” value [1] was 1.66E+04. For the same compound, the “Flux in the liver” value ([1]; mice (n=3), intravenous, 0.5 mpk, 6 hours) was “lowest”, the “Total Flux, Spleen” value [1] was 1.32E+05 and the EE [5, 8] was 85.7%. The PDI [2, 8] was less than 1, the “Cytokine induction, IL-6” value [3] was 130.82 and the “Cytokine induction, IP-10” value [3] was 234.35. For the same compound, the “Flux at all timepoints measured” value ([4]; mice, 0.5 mg/kg, 3, 6 and 24 hours) was “significantly lower flux”.
In the case of `CCCCCCCC/C=C\COC(=O)CCCCCN(CCO)CCCCCC(=O)OC/C=C\CCCCCCCC` [Compound 140, Di((Z)-undec-2-en-1-yl) 6,6′-((2-hydroxyethyl)azanediyl)dihexanoate], the “Total Flux, Femur” value [1] is reported as 3.26E+04, the “Total Flux, Liver” value [1] is reported as 4.21E+05 and the “Total Flux, Lung” value [1] is reported as 2.14E+04. The “Total Flux, Spleen” value [1] was 2.22E+05, the EE [5, 8] was 89.2% and the Size [2, 8] was 120.3 nm. For the same compound, the “Cytokine induction, IL-6” value [3] was 282.82 and the “Cytokine induction, IP-10” value [3] was 187.83.
With `CCCCCCCCCCCOC(=O)CCCCCN(CCO)CCCCCC(=O)OCCCCCCCCCCC` [Compound 141, Diundecyl 6,6′-((2-hydroxyethyl)azanediyl)dihexanoate] the “Total Flux, Femur” value [1] was 2.86E+04, the “Total Flux, Liver” value [1] was 1.59E+05 and the “Total Flux, Lung” value [1] was 3.85E+04. The “Total Flux, Spleen” value [1] was 6.29E+04, the EE [5, 8] was 94.1% and the Size [2, 8] was 91.3 nm. The “Cytokine induction, IL-6” value [3] was 327.15 and the “Cytokine induction, IP-10” value [3] was 1072.04.
For `CCCCCCCCCOC(=O)CCCCCCCN(CCO)CCCCCCC(=O)OCC(CCCCCCCC)CCCCCCCC` [Compound 143, Nonyl 8-((2-hydroxyethyl)(7-((2-octyldecyl)oxy)-7-oxoheptyl)amino)octanoate], the “Total Flux, Liver” value [1] was 1.76E+09, the “Total Flux, Lung” value [1] was 3.60E+07 and the “Total Flux, Spleen” value [1] was 1.42E+08. For the same compound, the EE [5, 8] was 97.37%, the Size [2, 8] was 98.8 nm and the “Cytokine induction, IL-6” value [3] was 6.245. For the same compound, the “Cytokine induction, IP-10” value [3] was 209.63 and the “Novel lipid/MC3 expression ratio, i.v.” value [4] was 0.44.
In the case of `CCCCCCCCCOC(=O)CCCCCCCN(CCO)CCCCCCCC(=O)N(CCCCCCCC)CCCCCCCC` [Compound 144, Nonyl 8-((8-(dioctylamino)-8-oxooctyl)(2-hydroxyethyl)amino)octanoate], the “Total Flux, Femur” value [1] is reported as 2.44E+06, the “Total Flux, Liver” value [1] is reported as 3.75E+08 and the “Total Flux, Lung” value [1] is reported as 4.81E+06. The “Total Flux, Spleen” value [1] was 5.11E+07, the EE [5, 8] was 90.3% and the Size [2, 8] was 135.9 nm. For the same compound, the “Cytokine induction, IL-6” value [3] was 319.46 and the “Cytokine induction, IP-10” value [3] was 4220.55.
In the case of `CCCCCCCCC(CCCCCCCC)OC(=O)CCCCCCCN(CCO)CCCCCCCCCC(=O)OCCCCCCC` [Compound 189, Heptyl 10-((8-(heptadecan-9-yloxy)-8-oxooctyl)(2-hydroxyethyl)amino)decanoate], the “[hEPO] Lipid/MC3” value [7] is reported as 3.01E+06, the EE [5, 9] is reported as 93.9% and the Size [2, 9] is reported as 95.5 nm.
For `CCCCCCCCCOC(=O)CCCCCCCN(CCCCCCCC(=O)OC(CCCCCCCC)CCCCCCCC)CCCN/C(=N/[N+](=O)[O-])NC` [Compound 200, Heptadecan-9-yl (E)-8-((3-(3-methyl-2-nitroguanidino)propyl)(8-(nonyloxy)-8-oxooctyl)amino)octanoate], the “hEPO AUC” value [7] was 2.4e+07 pg·h/mL, the “[hEPO] Lipid/MC3” value [7] was 1.72E+06 and the EE [5, 8] was 97.65%. For the same compound, the EE [5, 9] was 97.3%, the Size [2, 8] was 76.2 nm and the Size [2, 9] was 95.3 nm.
For `CCCCCCCCCOC(=O)CCCCCCCN(CCO)CCCCCC(=O)OC1CCC(CCCCC)CC1` (stereo not shown) [Compound 232, Nonyl 8-((2-hydroxyethyl)(6-oxo-6-((4-pentylcyclohexyl)oxy)hexyl)amino)octanoate], the “[hEPO] Lipid/MC3” value [7] was 0.83, the EE [5, 9] was 76.3% and the Size [2, 9] was 150.3 nm.
